Experimental data: US20250136583A1, “NOVEL SALT FORMS OF ISOCHROMAN-IMIDAZOLE STRUCTURED ALPHA-2A ADRENOCEPTOR AGONIST” (ORION CORPORATION, priority 2022, published 2025)
Counter-ions that a name gives are not always drawn.

Columns and labels:
[1] = Chemical stability of the salts (stress at 60° C. and 75% relative humidity, purity by UHPLC); type: physicochemical; conditions: for Purity (%) of 1 day stress samples / Difference between reference and 1 day stressed sample: 1 day at 60° C. and 75% relative humidity; for Purity (%) of 1 day stress samples / Purity (%) of 14 day stress samples / Purity (%) of reference: UHPLC; for Difference between reference and 1 day stressed sample / Difference between reference and 14 day stressed sample: purity difference, in %; for Purity (%) of 14 day stress samples / Difference between reference and 14 day stressed sample: 14 days at 60° C. and 75% relative humidity; for Purity (%) of reference: unstressed sample
Procedure: The purity analyses were performed using Agilent UHPLC equipment with PDA/DAD detector at 210 nm wavelength and reverse phase liquid chromatography column Acquity UPLC HSS T3, 100×3.0 mm, 1.8 μm (Waters). The chromatography was performed with gradient run using acetonitrile and phosphate buffer (pH 3.0) as eluents.
The chemical stability of various salts of compound (I) was determined by stressing the salts for 1 and 14 days at 60° C. and 75% relative humidity. The unstressed sample was used as an reference. The purity of the samples were analyzed using UHPLC, and the purity difference between the stressed and reference was calculated.

[2] = Physical stability of the salts (storage at elevated temperature and relative humidity, re-analysis by XRPD); type: physicochemical; conditions: for Form after stability / Physical stability: solids exposed for 2 or 3 weeks at 40° C. and 70-80% relative humidity; for Form after stability: XRPD; for Physical stability: re-analyzed by XRPD
Procedure: XRPD measurements were performed with the X-ray powder diffractometer Bruker D8 Advance at room temperature, using a copper filled X-ray tube (40 kV×40 mA) as the X-ray source, CuKα (λ=1.5418 Å), a 0.6 mm divergence slit, 2.5° Soller slits on both the primary and secondary beams and the 1-dimensional LynxEye detector (with aperture angle of 2.91593°). Data collection was done in the range of 3.8-33° 2θ with 0.02° increments, at a scan speed of 0.3°/s.
A stability test was carried out for all crystalline salt forms resulted from the salt screen by exposing the solids for 2 or 3 weeks at 40° C. and 70-80% relative humidity. After exposure, the solids were re-analyzed by XRPD, followed by physical stability assessment.

[3] = listed as 1-Hydroxy-2-naphtoic acid salt

| Compound | Purity (%) of 1 day stress samples [1] [%] | Difference between reference and 1 day stressed sample [1] | Purity (%) of 14 day stress samples [1] [%] | Difference between reference and 14 day stressed sample [1] | Purity (%) of reference [1] [%] | Form after stability [2] | Physical stability [2] | other results |
| --- | --- | --- | --- | --- | --- | --- | --- | --- |
| COc1cccc2c1CCOC2C1=NCCN1 (stereo not drawn) [Oxalic acid salt Form 1, 2-(5-methoxyisochroman-1-yl)-4,5-dihydro-1H-imidazole] | 97.9 | −0.2 | 97.9 | −0.2 | 97.7 | Form 1 | Stable | Chemical stability (in words) ([1]; summary statement): good chemical stability; Physical stability ([2]; listed as oxalic acid): remained stable |
| COc1cccc2c1CCOC2C1=NCCN1 (stereo not drawn) [Glutaric acid salt Form 1, 2-(5-methoxyisochroman-1-yl)-4,5-dihydro-1H-imidazole] | 78.7 | 17.7 | 2.0 | 94.4 | 96.4 | Form 1 | Stable | Physical stability ([2]; listed as glutaric acid): remained stable |
| COc1cccc2c1CCOC2C1=NCCN1 (stereo not drawn) [Adipic acid salt Form 1, 2-(5-methoxyisochroman-1-yl)-4,5-dihydro-1H-imidazole] | 94.7 | 4.4 | 2.7 | 96.5 | 99.1 | Form 1 | Stable | Physical stability ([2]; listed as adipic acid): remained stable |
| COc1cccc2c1CCOC2C1=NCCN1 [L-Aspartic acid salt Form 1, 2-(5-methoxyisochroman-1-yl)-4,5-dihydro-1H-imidazole] |  |  |  |  |  | Form 1 + amorphous | Unstable | Form after stability ([2]; listed as L-aspartic acid): an amorphous phase with characteristic peaks of the counter-ion |
| COc1cccc2c1CCOC2C1=NCCN1 [L-Glutamic acid salt Form 1, 2-(5-methoxyisochroman-1-yl)-4,5-dihydro-1H-imidazole] |  |  |  |  |  | extra peaks in the XRPD pattern |  |  |
| COc1cccc2c1CCOC2C1=NCCN1 (racemic) [D,L-Lactic acid salt Form 1, 2-(5-methoxyisochroman-1-yl)-4,5-dihydro-1H-imidazole] |  |  |  |  |  | Form 2 | Unstable | Form after stability ([2]; listed as D,L-lactic acid): completely |
| COc1cccc2c1CCOC2C1=NCCN1 (stereo not drawn) [2-Ketoglutaric acid salt Form 1, 2-(5-methoxyisochroman-1-yl)-4,5-dihydro-1H-imidazole] |  |  |  |  |  | Amorphous | Unstable | Form after stability ([2]; listed as 2-ketoglutaric acid): turned into amorphous phase |
| COc1cccc2c1CCOC2C1=NCCN1 (stereo not drawn) [Glycolic acid salt Form 1, 2-(5-methoxyisochroman-1-yl)-4,5-dihydro-1H-imidazole] | 99.3 | 0.5 | 17.6 | 82.2 | 99.8 | Form 1 | Stable | Physical stability ([2]; listed as glycolic acid): remained stable |
| COc1cccc2c1CCOC2C1=NCCN1 (stereo not drawn) [Saccharin salt Form 1, 2-(5-methoxyisochroman-1-yl)-4,5-dihydro-1H-imidazole] |  |  |  |  |  | Form 1 + Form 2 |  | Crystalline form conversion on storage ([2]; 40° C., 75% RH for 3 weeks): partially conversion into form 2; Form after stability ([2]; listed as saccharin (form 1)): changed partially |
| COc1cccc2c1CCOC2C1=NCCN1 [L-tartaric acid salt Form 1, 2-(5-methoxyisochroman-1-yl)-4,5-dihydro-1H-imidazole] | 97.9 | 1.0 | 90.3 | 8.7 | 99.0 | Form 1 | Stable | Physical stability ([2]; listed as L-tartaric acid (form 1)): remained stable |
| COc1cccc2c1CCOC2C1=NCCN1 (stereo not drawn) [1-Hydroxy-2-napthoic acid salt Form 1, 2-(5-methoxyisochroman-1-yl)-4,5-dihydro-1H-imidazole] |  |  |  |  |  | Form 1 | Stable | Purity (%) of 1 day stress samples [1, 3]: 95.4%; Difference between reference and 1 day stressed sample [1, 3]: 3.5; Purity (%) of 14 day stress samples [1, 3]: 0.6%; Difference between reference and 14 day stressed sample [1, 3]: 98.3; Purity (%) of reference [1, 3]: 98.9%; Physical stability ([2]; listed as 1-hydroxy-2-napthoic acid): remained stable |
| COc1cccc2c1CCOC2C1=NCCN1 (stereo not drawn) [Malonic acid salt Form 1, 2-(5-methoxyisochroman-1-yl)-4,5-dihydro-1H-imidazole] | 96.6 | 1.5 | 72.7 | 25.5 | 98.2 | Form 1 | Stable | Physical stability ([2]; listed as malonic acid): remained stable |
| COc1cccc2c1CCOC2C1=NCCN1 (stereo not drawn) [Maleic acid salt Form 1, 2-(5-methoxyisochroman-1-yl)-4,5-dihydro-1H-imidazole] | 64.0 | 35.7 | 33.3 | 66.4 | 99.6 | Form 1 | Stable | Physical stability ([2]; listed as maleic acid): remained stable |
| COc1cccc2c1CCOC2C1=NCCN1 (stereo not drawn) [Fumaric acid salt Form 1, 2-(5-methoxyisochroman-1-yl)-4,5-dihydro-1H-imidazole] |  |  |  |  |  | Form 1 | Stable | Physical stability ([2]; listed as fumaric acid (form 1)): remained stable |
| COc1cccc2c1CCOC2C1=NCCN1 (stereo not drawn) [Methanesulfonic acid salt Form 1, 2-(5-methoxyisochroman-1-yl)-4,5-dihydro-1H-imidazole] |  |  |  |  |  | Amorphous | Unstable | Form after stability ([2]; listed as methanesulfonic acid): turned into amorphous phase |
| COc1cccc2c1CCOC2C1=NCCN1 (stereo not drawn) [Saccharin salt, 2-(5-methoxyisochroman-1-yl)-4,5-dihydro-1H-imidazole] | 95.0 | 2.1 | 91.5 | 5.6 | 97.1 |  |  |  |
| COc1cccc2c1CCOC2C1=NCCN1 (stereo not drawn) [Saccharin salt Form 2, 2-(5-methoxyisochroman-1-yl)-4,5-dihydro-1H-imidazole] |  |  |  |  |  | Form 2 | Stable | Physical stability ([2]; listed as saccharin (form 2)): remained stable |
| COc1cccc2c1CCOC2C1=NCCN1 (stereo not drawn) [Cyclamic acid salt Form 1, 2-(5-methoxyisochroman-1-yl)-4,5-dihydro-1H-imidazole] |  |  |  |  |  | Form 2 | Unstable | Form after stability ([2]; listed as cyclamic acid (form 1)): completely |
| COc1cccc2c1CCOC2C1=NCCN1 (stereo not drawn) [Cyclamic acid salt Form 2, 2-(5-methoxyisochroman-1-yl)-4,5-dihydro-1H-imidazole] |  |  |  |  |  |  |  | Form after stability ([2]; listed as cyclamic acid (form 2)): extra peaks in the XRPD pattern |
